The values that follow come from patent US20200230126A1, “TARGETED THERAPEUTICS” (TARVEDA THERAPEUTICS, INC., priority 2017, published 2020).

The term pKa denotes the pH at which an ionisable group is half protonated.

Data set [1] can be described thus: Exposure in mice. To be noted: mouse, in vivo, 20 mg/kg dose. The procedure: (§1) Exposures achieved in these toxicology studies exceed the levels anticipated to show anti-tumor activity, based on anti-tumor efficacy determined in mice. The minimum dose for anti-tumor efficacy in mice xenografts was determined to be 20 mg/kg with once weekly administration. […] This exposure is similar to that in rats at the STD10 in the GLP toxicology study where the AUCt values determined were 107 and 68 μg·h/mL in males and female rats, respectively. The mouse exposure is lower that the exposure at the HNSTD in dogs, 181 and 183 μg·h/mL in male and female dogs, respectively. Using body surface area, the dog HNSTD for SDC-TRAP-0063 is 6.6-fold higher than the minimum dose for efficacy in the mouse while the rat STD10 is 3 fold higher.

The nature of data set [2]: pH-dependent equilibrium of lactone ring and open chain carboxylic acid form in solution. It counts as physicochemical. The text has this:
In solution, SDC-TRAP-0063 contains a lactone ring at pH-dependent equilibrium with the corresponding open chain carboxylic acid form.

Data set [3] can be described thus: Repeat dose GLP toxicity study in rats. The settings on record: for AUC(0-t): in vivo, 30 mg/kg, at the STD10 in the GLP toxicology study. It counts as in vivo, rat. The procedure: (§2) The SDC-TRAP-0063 selected starting dose is 30 mg IV on D1, D8, and D15 of each 28-day cycle. ICH S9 recommends that a starting clinical dose for a first-in-human study should be either 1/10th of the STD10 in rodent toxicity studies or ⅙th of the HNSTD in non-rodent toxicity studies.
(§3) Based on the findings in the repeat dose GLP toxicity study in rats, the dose of one-tenth the rat STD10 gives a Human Equivalent Dose (HED) of 0.48 mg/kg informing the SDC-TRAP-0063 first-in-human starting dose (Table 10). The calculation based on the dog highest non-severe toxic dose (HNSTD) of 20 mg/kg determined in the repeat dose GLP toxicity study in dogs is shown in Table 11 and results in a higher HED of 1.9 mg/kg substantiating that rat is the more sensitive species. The human starting dose of 0.48 mg/kg is equivalent to 18 mg/m^2. Assuming an average human weight of 60 kg, the starting dose translates to 29 mg or using an average body surface area of 1.7 m^2, the starting dose is 30 mg.

Data set [4] in a line: Repeat dose GLP toxicity study in dogs. It counts as in vivo, dog. The settings on record: for AUC(0-t): in vivo, 20 mg/kg, at the HNSTD, read-out: exposure (AUCt). The procedure:
as §2, §3

Data set [5] has as its system mice xenografts. Kind of data set: Anti-tumor efficacy in mice xenografts. The settings on record: once weekly administration. It counts as in vivo, mouse. As to the method: as §1
A short description of data set [6]: Light sensitivity of the diluted solution. It counts as physicochemical. The settings on record: duration of 6 hours. An excerpt: The diluted solution is attached to an infusion set free of diethylhexyl-phthalate (DEHP) and containing a 0.2 micron filter.
Data set [7] deals with tumor cells. The data set is described as follows: DNA double-strand breaks in tumor cells. It counts as cell-based. To be noted: treatment of tumor cells. As to the method:
The histone H2A variant H2AX (γ-H2AX) is an indicator of DNA double-strand breaks and is a sensitive marker of DNA damage response. During the DNA damage response, double-stranded breaks (DSB) are generated that result in the rapid phosphorylation of γ-H2AX. […] These DSBs can be quantitated by measuring γ-H2AX levels. In in vivo pharmacology studies, PDc response to SDC-TRAP-0063 was assessed by immunostaining for γ-H2AX and was associated with anti-tumor activity of SDC-TRAP-0063. γ-H2AX has been used in clinical studies to monitor DNA damage induced by topoisomerase I inhibition, ionizing radiation, or Weel inhibition. During Phase 1 only, for patients who sign the provision of optional tumor biopsies and hair follicle collections, levels of γ-H2AX are evaluated in paired tumor biopsies and hair follicles to check for evidence of SDC-TRAP-0063-induced DNA damage response. Based on the mechanism of action of SDC-TRAP-0063, it would be expected that evidence of DNA damage, as measured by γ-H2AX and/or other markers of DNA damage, would be greater in tumor tissue compared to hair follicle. It is estimated that 10 high quality pairs of tumor biopsies and hair follicles are needed to adequately explore the relationship between SDC-TRAP-0063 treatment and DNA damage response.

[8] abbreviates: mg/kg human dose multiplied by 37.

For `CCc1c2c(nc3ccc(OC(=O)N4CCC(CCn5ccc6cc(-n7c(O)nnc7-c7cc(C(C)C)c(O)cc7O)ccc65)CC4)cc13)-c1cc3c(c(=O)n1C2)COC(=O)[C@]3(O)CC` [SDC-TRAP-0063], the AUC(0-t) was determined as 112 µg·h/mL in data set [1]; 68 µg·h/mL in data set [3] (rat, female rats); 107 µg·h/mL in data set [3] (rat, male rats); 183 µg·h/mL in data set [4] (dog, female dogs); 181 µg·h/mL in data set [4] (dog, male dogs). In data set [2], the pKa is 9.3. For the same compound, the “HED of 1/10 Rat STD10” value amounted to 0.48 mg/kg in data set [3] (1/10 rat STD10 divided by 6.2 (60 kg human)) and 18 mg/m^2 in data set [3] (setting [8]). The “Rat 1/10 STD10” value in data set [3] (mg/kg dose in rat multiplied by 6) was found to be 18 mg/m^2. Also, the “1/10 Rat STD10” value in data set [3] (rat) stood at 3.0 mg/kg. The “Rat STD10” value in data set [3] (repeat dose GLP toxicity study in rats) was determined as 30 mg/kg. The “rat STD10 relative to the minimum dose for efficacy in the mouse” value in data set [3] (using body surface area) is 3 fold. Moreover, the entries for the “HED of 1/6 Dog HNSTD” value in data set [4] (1/6 dog HNSTD divided by 1.8 (60 kg human)) and in data set [4] (setting [8]) were 1.9 mg/kg and 69 mg/m^2, respectively. The “1/6 Dog HNSTD” value in data set [4] (dog) is given as 3.3 mg/kg. In addition, the “Dog 1/6 HNSTD” value in data set [4] (mg/kg dose in dog multiplied by 20) worked out at 67 mg/m^2. The “Dog HNSTD” value in data set [4] (repeat dose GLP toxicity study in dogs) was found to be 20 mg/kg. The “dog HNSTD relative to the minimum dose for efficacy in the mouse” value in data set [4] (using body surface area) amounted to 6.6 fold. Also, the “minimum dose for anti-tumor efficacy” value in data set [5] was determined as 20 mg/kg. Also, the “light sensitivity of the diluted solution” value in data set [6] is “not light sensitive”. The “DNA double-stranded breaks (DSBs)” value in data set [7] is given as “induces DNA DSBs”.
